Data as given in the NIST ThermoML archive (doi:10.1021/je1011604).
± gives the expanded uncertainty stated by the source.

Experiments:
[1] = 101.33 kPa, Liquid, Pycnometric method
[2] = xn = mol fraction of the nth substance listed; conditions: 101 kPa, Liquid, Capillary tube (Ostwald / Ubbelohde) method

## c1ccccc1 [benzene]
[1]; 303.15 K
  mass density: 868.1 ± 0.5 kg/m3
[1]; 313.15 K
  mass density: 857.4 ± 0.6 kg/m3
[1]; 323.15 K
  mass density: 846.6 ± 0.6 kg/m3

## CCC(C)=O [butanone]
[1]; 303.15 K
  mass density: 794.6 ± 0.8 kg/m3
[1]; 313.15 K
  mass density: 784 ± 0.8 kg/m3
[1]; 323.15 K
  mass density: 773.3 ± 0.8 kg/m3

## c1ccccc1 [benzene] + CCC(C)=O
[2]; 303.15 K, x2 = 0
  viscosity: 0.564 ± 0.011 mPa·s
[2]; 313.15 K, x2 = 0
  viscosity: 0.498 ± 0.011 mPa·s
[2]; 323.15 K, x2 = 0
  viscosity: 0.442 ± 0.011 mPa·s

## CCC(C)=O [butanone] + c1ccccc1
[2]; 303.15 K, x1 = 0.101
  viscosity: 0.534 ± 0.011 mPa·s
[2]; 303.15 K, x1 = 0.1999
  viscosity: 0.508 ± 0.011 mPa·s
[2]; 303.15 K, x1 = 0.2988
  viscosity: 0.478 ± 0.011 mPa·s
[2]; 303.15 K, x1 = 0.3969
  viscosity: 0.452 ± 0.011 mPa·s
[2]; 303.15 K, x1 = 0.4996
  viscosity: 0.432 ± 0.011 mPa·s
[2]; 303.15 K, x1 = 0.5988
  viscosity: 0.417 ± 0.011 mPa·s
[2]; 303.15 K, x1 = 0.6993
  viscosity: 0.401 ± 0.011 mPa·s
[2]; 303.15 K, x1 = 0.7931
  viscosity: 0.389 ± 0.011 mPa·s
[2]; 303.15 K, x1 = 0.8961
  viscosity: 0.376 ± 0.011 mPa·s
[2]; 303.15 K, x1 = 1
  viscosity: 0.367 ± 0.011 mPa·s
[2]; 313.15 K, x1 = 0.101
  viscosity: 0.473 ± 0.011 mPa·s
[2]; 313.15 K, x1 = 0.1999
  viscosity: 0.448 ± 0.011 mPa·s
[2]; 313.15 K, x1 = 0.2988
  viscosity: 0.427 ± 0.011 mPa·s
[2]; 313.15 K, x1 = 0.3969
  viscosity: 0.409 ± 0.011 mPa·s
[2]; 313.15 K, x1 = 0.4996
  viscosity: 0.393 ± 0.011 mPa·s
[2]; 313.15 K, x1 = 0.5988
  viscosity: 0.378 ± 0.011 mPa·s
[2]; 313.15 K, x1 = 0.6993
  viscosity: 0.367 ± 0.011 mPa·s
[2]; 313.15 K, x1 = 0.7931
  viscosity: 0.355 ± 0.011 mPa·s
[2]; 313.15 K, x1 = 0.8961
  viscosity: 0.345 ± 0.011 mPa·s
[2]; 313.15 K, x1 = 1
  viscosity: 0.334 ± 0.011 mPa·s
[2]; 323.15 K, x1 = 0.101
  viscosity: 0.422 ± 0.011 mPa·s
[2]; 323.15 K, x1 = 0.1999
  viscosity: 0.403 ± 0.011 mPa·s
[2]; 323.15 K, x1 = 0.2988
  viscosity: 0.384 ± 0.011 mPa·s
[2]; 323.15 K, x1 = 0.3969
  viscosity: 0.369 ± 0.011 mPa·s
[2]; 323.15 K, x1 = 0.4996
  viscosity: 0.354 ± 0.011 mPa·s
[2]; 323.15 K, x1 = 0.5988
  viscosity: 0.343 ± 0.011 mPa·s
[2]; 323.15 K, x1 = 0.6993
  viscosity: 0.333 ± 0.011 mPa·s
[2]; 323.15 K, x1 = 0.7931
  viscosity: 0.324 ± 0.011 mPa·s
[2]; 323.15 K, x1 = 0.8961
  viscosity: 0.316 ± 0.011 mPa·s
[2]; 323.15 K, x1 = 1
  viscosity: 0.306 ± 0.011 mPa·s
